From US6861561B2, “Substituted aromatic policyclic tertiary-heteroalkylamines useful for inhibiting cholesteryl ester transfer protein activity” (G. D. Searle & Co., priority 1999, dated 2005) come the findings set out here.

The experiment has as its target T1, Human recombinant CETP (Homo sapiens, UniProt P11597).
T1 construct: made in house; host or cells: CHO cells (serum-free conditioned medium)
T1 sequence (P11597 18-493): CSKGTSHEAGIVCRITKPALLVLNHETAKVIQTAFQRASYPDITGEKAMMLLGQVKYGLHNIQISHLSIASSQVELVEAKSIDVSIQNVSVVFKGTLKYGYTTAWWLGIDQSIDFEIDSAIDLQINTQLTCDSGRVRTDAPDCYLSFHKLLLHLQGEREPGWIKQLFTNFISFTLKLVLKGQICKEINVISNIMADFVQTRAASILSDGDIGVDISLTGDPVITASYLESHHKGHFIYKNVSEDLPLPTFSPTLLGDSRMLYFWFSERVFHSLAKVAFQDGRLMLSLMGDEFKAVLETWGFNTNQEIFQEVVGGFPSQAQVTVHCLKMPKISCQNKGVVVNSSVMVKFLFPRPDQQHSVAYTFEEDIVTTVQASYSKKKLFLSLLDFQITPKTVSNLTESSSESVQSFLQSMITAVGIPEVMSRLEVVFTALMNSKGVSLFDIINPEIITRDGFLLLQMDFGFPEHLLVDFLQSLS
The experiment in a line: Assay of CETP Inhibition Using Purified Components (Reconstituted Buffer Assay). The settings on record: transfer of [3H]CE from HDL to LDL; 2 hours at 37° C. Type of experiment: biochemical. The procedure:
Assay of CETP Inhibition Using Purified Components (Reconstituted Buffer Assay)
The ability of compounds to inhibit CETP activity was assessed using an in vitro assay that measured the rate of transfer of radiolabeled cholesteryl ester ([^3H]CE) from HDL donor particles to LDL acceptor particles. Details of the assay are provided by Glenn, K. C. et al. (Glenn and Melton, “Quantification of Cholesteryl Ester Transfer Protein (CETP): A) CETP Activity and B) Immunochemical Assay of CETP Protein,” Meth. Enzymol., 263, 339-351 (1996)). Human recombinant CETP can be obtained from the serum-free conditioned medium of CHO cells transfected with a cDNA for CETP and purified as described by Wang, S. et al. (J. Biol. Chem. 267, 17487-17490 (1992)). To measure CETP activity, [^3H]CE-labeled-HDL, LDL, CETP and assay buffer (50 mM tris(hydroxymethyl)aminomethane, pH 7.4; 150 mM sodium chloride; 2 mM ethylenediamine-tetraacetic acid (EDTA); 1% bovine serum albumin) were incubated in a final volume of 200 μL, for 2 hours at 37° C. in 96 well plates. Inhibitors were included in the assay by diluting from a 10 mM DMSO stock solution into 16% (v/v) aqueous DMSO so that the final concentration of inhibitor was 800 μM. The inhibitors were then diluted 1:1 with CETP in assay buffer, and then 25 μL of that solution was mixed with 175 μL of lipoprotein pool for assay. Following incubation, LDL was differentially precipitated by the addition of 50 μL of 1% (w/v) dextran sulfate/0.5 M magnesium chloride, mixed by vortex, and incubated at room temperature for 10 minutes. A potion of the solution (200 μL) was transferred to a filter plate (Millipore). After filtration, the radioactivity present in the precipitated LDL was measured by liquid scintillation counting. […] The rate of [^3H]CE transfer using this assay was linear with respect to time and CETP concentration, up to 25-30% of [^3H]CE transferred.
This value was defined as the IC50.

For orientation: IC50 means the concentration at which inhibition is half-maximal. `OCC(c1ccc(C(F)(F)F)cc1)N(Cc1cccc(OC(F)(F)F)c1)c1cccc(Oc2ccccc2)c1` (stereo not shown) [1B, 2-[(3-phenoxy)phenyl[[(3-trifluoromethoxy)phenyl]methyl]amino]-2-[(4-trifluoromethyl)phenyl]ethanol]: the IC50 amounted to 6 µM.

In the case of `OC(CN(Cc1cccc(OC(F)(F)F)c1)c1cccc(Oc2ccccc2)c1)c1ccc(C(F)(F)F)cc1` (stereo not shown) [EX-1A, 2-[(3-phenoxy)phenyl[[(3-trifluoromethoxy)phenyl]methyl]amino]-1-[(4-trifluoromethyl)phenyl]ethanol], the IC50 came to 18 µM.

Regarding `CCCC(O)CN(Cc1cccc(OC(F)(F)F)c1)c1cccc(Oc2ccccc2)c1` (stereo not shown) [Example 2], the IC50 amounted to 3.6 µM.

For `OC(CN(Cc1cccc(OC(F)(F)F)c1)c1cccc(Oc2ccccc2)c1)c1ccccc1` (stereo not shown) [Example 3], the IC50 came out at 44 µM.

For the compound `C=CC(O)CN(Cc1cccc(OC(F)(F)F)c1)c1cccc(Oc2ccccc2)c1` (stereo not shown) [Example 4], the concentration for half-maximal inhibition (IC50) was > 50 µM.

As for `OC(Cc1ccccc1)CN(Cc1cccc(OC(F)(F)F)c1)c1cccc(Oc2ccccc2)c1` (stereo not shown) [Example 5], the concentration for half-maximal inhibition (IC50) is > 50 µM.

For the compound `OC(COc1ccc(Cl)cc1)CN(Cc1cccc(OC(F)(F)F)c1)c1cccc(Oc2ccccc2)c1` (stereo not shown) [Example 6], the IC50 was > 100 µM.

Take `OC(COCc1ccco1)CN(Cc1cccc(OC(F)(F)F)c1)c1cccc(Oc2ccccc2)c1` (stereo not shown) [Example 7]: the IC50 was > 100 µM.

Regarding `OCC(c1cccc(C(F)(F)F)c1)N(Cc1cccc(OC(F)(F)F)c1)c1cccc(Oc2ccccc2)c1` (stereo not shown) [Example 8], the IC50 stood at 7 µM.

As for `COC(=O)C(C)(O)CN(Cc1cccc(OC(F)(F)F)c1)c1cccc(Oc2ccccc2)c1` (stereo not shown) [Example 9], the IC50 came to 24 µM.

Regarding `OC(CN(Cc1cccc(OC(F)(F)C(F)F)c1)c1cccc(Oc2ccccc2)c1)c1ccccc1` (stereo not shown) [Example 10], the IC50 is 57 µM.

With `OC1CCCCC1N(Cc1cccc(OC(F)(F)F)c1)c1cccc(Oc2ccccc2)c1` (stereo not shown) [Example 26], the IC50 stood at 15 µM.

With `FC(F)(F)Oc1cccc(CN(CCc2ccc(C(F)(F)F)cc2)c2cccc(Oc3ccccc3)c2)c1` [Example 27, N-[(3-phenoxy)phenyl]-N-[[(3-trifluoromethoxy)phenyl]methyl]-2-[(4-trifluoromethyl)phenyl]ethanamine], the IC50 was > 100 µM.

For the compound `FC(CN(Cc1cccc(OC(F)(F)F)c1)c1cccc(Oc2ccccc2)c1)c1ccc(C(F)(F)F)cc1` (stereo not shown) [Example 28, N-[(3-phenoxy)phenyl]-N-[[(3-trifluoromethoxy)phenyl]methyl]-2-[(4-trifluoromethyl)phenyl]-2-fluoro-ethanamine], the half-inhibitory concentration (IC50) is > 100 µM.

For `CCCC(O)CN(Cc1cccc(OC(F)(F)F)c1)Cc1cccc(OC(F)(F)F)c1` (stereo not shown) [compound 11], the IC50 is 30 µM.

Turning to `OC(Cc1ccccc1)CN(Cc1cccc(OC(F)(F)F)c1)Cc1cccc(OC(F)(F)F)c1` (stereo not shown) [compound 12], the concentration for half-maximal inhibition (IC50) came to 14 µM.

In the case of `COCC(O)CN(Cc1cccc(OC(F)(F)F)c1)Cc1cccc(OC(F)(F)F)c1` (stereo not shown) [compound 13], the IC50 is 80 µM.

Take `CC(O)CN(Cc1cccc(OC(F)(F)F)c1)Cc1cccc(OC(F)(F)F)c1` (stereo not shown) [compound 14]: the IC50 was determined as 90 µM.

As to `CCOC(=O)C(O)CN(Cc1cccc(OC(F)(F)F)c1)Cc1cccc(OC(F)(F)F)c1` (stereo not shown) [compound 15], the half-maximal inhibitory concentration (IC50) was > 100 µM.

Regarding `OCC(O)CN(Cc1cccc(OC(F)(F)F)c1)Cc1cccc(OC(F)(F)F)c1` (stereo not shown) [compound 16], the IC50 was > 100 µM.

As for `OC(COc1ccccc1)CN(Cc1cccc(OC(F)(F)F)c1)Cc1cccc(OC(F)(F)F)c1` (stereo not shown) [compound 17], the IC50 was > 100 µM.

For the compound `OC(COc1ccc(Cl)cc1)CN(Cc1cccc(OC(F)(F)F)c1)Cc1cccc(OC(F)(F)F)c1` (stereo not shown) [compound 18], the IC50 is > 100 µM.

With `OC(CN1CCOCC1)CN(Cc1cccc(OC(F)(F)F)c1)Cc1cccc(OC(F)(F)F)c1` (stereo not shown) [compound 19], the IC50 was > 100 µM.

Regarding `O=C1c2ccccc2C(=O)N1CC(O)CN(Cc1cccc(OC(F)(F)F)c1)Cc1cccc(OC(F)(F)F)c1` (stereo not shown) [compound 20], the IC50 is > 100 µM.

Consider `COc1ccc(OCC(O)CN(Cc2cccc(OC(F)(F)F)c2)Cc2cccc(OC(F)(F)F)c2)cc1` (stereo not shown) [compound 21], for which the IC50 was > 100 µM.
